Test results taken from US12577273B2, “Small molecule modulators of gut bacterial bile acid metabolism” (priority 2019, dated 2026).
Like-named read-outs stand apart in the source and are kept apart here.

Tested on: C57BL/6 mice
Type: in vivo, mouse
Details: single gavage 10 mg/kg; for BSH activity in feces: 1 day and 1.5 days post-gavage
Procedure: Mice were split into two groups of four mice each and were gavaged with either 200 μL of corn oil containing 5% DMSO (vehicle group) or with 200 μL of corn oil containing 7 at a concentration of 1.25 mg/mL (experimental group). For the fecal pellet collection, each mouse was transferred to a temporary cardboard cage for a few minutes until it defecated.
Quantification of Bile Acids in Tissues and Plasma.
Determination of Microbial Biomass by Plating. Frozen fecal pellets were used to determine colony forming units (CFU/g). Feces were suspended in PBS buffer in an anaerobic chamber. Serial dilutions were plated on CHG agar plates (see “Bacterial Culturing”) and incubated at 37° C.
Isolation of Fecal Bacterial Microbiota and 16S rRNA Gene Sequencing Analysis. Mouse fecal microbiota DNA was isolated by using ZymoBIOMICS 96 DNA Kit (ZymoBIOMICS™) according to the manufacturer's instructions. […]
Gel electrophoresis was used to check the success of PCR amplification. The concentration of the PCR product was measured by the Quan-IT dsDNA high sensitivity assay. ˜120 ng of DNA of each PCR product was pooled together to generate an aggregated library for downstream processing. PCR DNA amplicons between 300-500 bp were selected from the aggregated library on a targeted size selection platform (pippin prep 1.5% agarose cassette from Sage Sciences) according to the manufacturer's instructions. The size of DNA amplicons was characterized on an Agilent Technologies 2100 bioanalyzer trace. DNA concentration of the aggregated library was measured by the Quant-IT dsDNA high sensitivity assay. […] 600 ul of the denatured and diluted library with 20% phiX spike-in (120 ul, 7.5 pM of phiX) was loaded onto the MiSeq V2 reagent cartridge (Illumina) and was sequenced with paired-end 250 bp reads using the custom primers described above. […] The resulting FASTQ sequences were then quality-filtered and analyzed by following QIIME_mothur_DADA2.^56-59 Operational Taxonomic Units (OTUs) were picked with 97% sequence similarity. […]

SMILES: C[C@H](CCC(=O)CF)[C@H]1CC[C@H]2[C@@H]3[C@H](O)C[C@@H]4C[C@H](O)CC[C@]4(C)[C@H]3CC[C@]12C [Compound 7]
- BSH activity in feces (10 mg/kg): significant decrease in BSH activity in feces
- BSH activity in feces (listed as compound 7, 10 mg/kg): significantly lower
- fecal deoxycholic acid (DCA) (1 day post-gavage): a decrease in the deconjugated secondary bile acid deoxycholic acid (DCA) was observed
